Experiments:
[1] = test system: rat lung membrane SMBS; test: Receptor-binding assessment test using rat lung membranes ([125I]-iodocyanopindolol ligand binding assay); conditions: 1 μM test compound; ratio of inhibiting specific binding of [125I]-iodocyanopindolol to rat lung membrane SMBS
Protocol: Receptor-Binding Assessment Test of Compounds Using Rat Lung Membranes
The assessment test was carried out according to the method of Sugasawa, T. et al., J. Biol. Chem., 272, 21244-21252 (1997).
Preparation of Rat Lung Membranes
Lung taken out from SD male rat (7-week old under test, Charles River Laboratories Japan, Inc.) was removed trachea and blood vessels to shred and washed with iced tris-saline buffer (10 mM tris hydrochloric acid-154 mM sodium chloride, pH7.4). The resultant was homogenized by Hiscotron with ice-cold tris-saline buffer containing a homogenization buffer (1 mM ethylenediaminetetraacetic acid (EDTA), 1 mM 4-(2-aminoethyl)benzenesulfonyl fluoride (AEBSF), 5 μg/ml aprotinin, 5 μg/ml leupeptine) (maximum rate: 1 minute). The supernatant after low-speed centrifugation (1500×g, 20 minutes, 4° C.) was ultracentrifuged (100000×g, 20 minutes, 4° C.), and the pellet was suspended in tris-saline buffer to store at −80° C. The protein concentrations were determined by Bio-Rad Protein Assay Kit using bovine serum albumin (BSA) as a standard.
To each well in protein-nonabsorptive round-bottom 96-well assay plate (commercially available from Iwaki Glass Co., Ltd.) were added tris-saline buffer (200 μl) containing 1 nM [^125I]-iodocyanopindolol (commercially available from Amersham plc), 10 μM serotonine, 20 μm dl-propranolol, 10 μM phentolamine, 1.1 mM ascorbic acid and 100 μg lung membrane, and the mixture was pipetted to combine and then incubated at 37° C. for 30 minutes. The test compounds were dissolved in 100% dimethyl sulfoxide solution, and thereto was added 2 μl (final DMSO concentration: 1%). In order to calculate nonspecific binding amounts, to the mixture was added L-threo-3-(3,4-dihydroxyphenyl)-N-[3-(4-fluorophenyl)propyl]serine pyrrolidine amide at 100 μM of the final concentration as an alternative to the test compounds. During this time, 100 μl of 0.3% polyethyleneimine (PEI)/tris-saline buffer was added to MultiScreen plate (96-well B glass fiber, Millipore Cat. No. MAFB NOB10), and incubated for over 30 minutes. The resultant was filtered with aspiration (aspiration by the addition of 200 μl iced tris-saline buffer) to wash, and the reaction solutions on 96-well assay plate were filtered with aspiration to wash four times on MultiScreen plate. B glass fiber filter paper at the bottom of MultiScreen plate was punched out, and γ-ray doses of [^125I]-iodocyanopindolol trapped on the filter paper were determined as binding amounts. The binding amounts in the presence of DMSO (final concentration: 1%) were total binding amounts, and the binding amounts in the presence of 100 μM L-threo-3-(3,4-dihydroxyphenyl)-N-[3-(4-fluorophenyl)propyl]serine pyrrolidine amide were nonspecific binding amounts. The values subtracted the nonspecific binding amounts from the total binding amounts were the specific binding amounts. The binding activity of a compound was calculated according to the following formula, which was shown in the ratio of inhibiting the specific binding of [^125I]-iodocyanopindolol to rat lung membrane SMBS by the test compound.

[2] = test system: Corticosterone generation; test: Assessment test of steroid hormone synthesis inhibition (Corticosterone generation in rat adrenal gland cells); assay type: cell-based; conditions: 10 μM test article, rat adrenal cells with cAMP, 2 hours, read-out: Steroid Synthesis Inhibition Rate (%) (10 μM)
Source text: Assessment Test of Steroid Hormone Synthesis Inhibition
• Cell Strainer (BD Falcon®) • Cell Titer-Glo® (Promega) • Collagenase from Clostridium histolyticum (Sigma-Aldrich) • Corticosterone EIA kit (Cayman) • Dimethylsulfoxide (referred to as DMSO hereinafter) (nacalai tesque) • D-MEM (GIBCO) • DNase I (Invitrogen) • Fetal Bovine Serums (referred to as FBS hereinafter) (Bioflud) • Multiple well plates for adhesive cell culture, 96 wells (IWAKI) • N^6,2′-O-Dibutyryladenosine 3′,5′-cyclic monophosphate sodium salt (referred to as cAMP hereinafter) (Sigma) • Penicillin Streptomycin Mixed Solution (nacalai tesque)
Control examples 1 to 4: Control example 1 was Example 350 of Patent Document 2. Control examples 2 to 4 were synthesized according to Patent Document 2.
Adrenal glands were taken out from rats, and removed excess connective tissues, adiposes and membranes in D-MEM. The adrenal glands were transferred to polytubes, and quickly segmentalized with scissors. Thereto was added D-MEM containing 1 mg/mL collagenase and 0.25 μL DNase 1, and then the mixture was shaken at 37° C. for 10 minutes in 80 times/minute. Then, the mixture was pipetted by 1 mL truncated pipette tip, and shaken again under the same condition. After 10 minutes, the mixture was pipetted again by 1 mL pipette tip, and the cell suspension was filtered through metal mesh. The filtrate was centrifuged at 4° C. for 5 minutes in 500 g. The supernatant was removed, and thereto was added a mixed solution of 0.16 M NH4Cl and 0.17 M Tris-HCl in 3 mL. The mixture was let stand on ice for 5 minutes, and then centrifuged under the same condition. Then, the supernatant was removed and then thereto was added D-MEM. The cell suspension was prepared and centrifuged under the same condition. Again, the supernatant was removed and then thereto was added D-MEM to give a cell suspension. The cell suspension was filtered by Cell Strainer (BD Falcon®). The filtrate was centrifuged under the same condition. After the completion of the centrifugation, the supernatant was removed, and thereto was added D-MEM containing 1% Penicillin Streptomycin Mixed Solution and 10% FBS. The mixture was seeded in Multiple well plate for adhesive cell culture, 96 wells (IWAKI) in 10000 cells/well, and incubated at 37° C. overnight in CO2 incubator.
Test article concentrations were prepared in DMSO to 2000 μM, and D-MEM containing 20 μM test article in D-MEM was prepared.
Cell-seeded plate was incubated overnight, and then the medium was removed and thereto was added D-MEM containing 20 μM test article in 50 μL/well. Then, to the mixture was promptly added D-MEM containing 20 μM cAMP in 50 μL/well so that the final concentration of the test article was 10 μM. After the addition of 2 types of D-MEM, the mixture was incubated at 37° C. for 2 hours in CO2 incubator. After 2 hours, the supernatant (50 μL) of the medium was collected. For cells, the cell toxicity of the test article was assessed according to a conventional method using Cell Titer-Glo® (Promega). For the collected supernatant, the Corticosterone concentration in the supernatant was determined according to a conventional method using Corticosterone EIA kit (Cayman).
The inhibition rate of 10 μM test article to Corticosterone generation was calculated according to the following formula confirming that the cell toxicity by the test article was not recognized.

Compound | Binding Activity (%) (1 μM) [1] | inhibition at 10 µM [2] [%] | melting point [°C]
CNC(=O)NCCn1c(-c2ccc(CN3CCOCC3)cc2C)cs/c1=N\c1ccc(F)c(C)c1 [Example 18, N-{2-[(2Z)-2-[(4-Fluoro-3-methylphenyl)imino]-4-[2-methyl-4-(morpholin-4-ylmethyl)phenyl]-1,3-thiazol-3(2H)-yl]ethyl}-N′-methylurea] | 88 | 28 | –
CNC(=O)NCCn1c(-c2ccc(CN3CCOCC3)c(OC)c2)cs/c1=N\c1ccc(F)c(C)c1 [Example 21, N-{2-[(2Z)-2-[(4-Fluoro-3-methylphenyl)imino]-4-[3-methoxy-4-(morpholin-4-ylmethyl)phenyl]-1,3-thiazol-3(2H)-yl]ethyl}-N′-methylurea] | 82 | 8 | –
CNC(=O)NCCn1c(-c2ccc(CN3CCOCC3)cc2C)cs/c1=N\c1ccc(C)c(F)c1 [Example 22] | – | – | 171 to 174
CNC(=O)NCCn1c(-c2ccc(CN3CCOCC3)cc2C)cs/c1=N\c1cccc(F)c1 [Example 23] | – | – | 119 to 121
CNC(=O)NCCn1c(-c2ccc(CN3CCOCC3)cc2C)cs/c1=N\c1ccc(F)cc1C [Example 24] | – | – | 122 to 125
CNC(=O)NCCn1c(-c2ccc(CN3CCOCC3)cc2C)cs/c1=N\c1ccc(F)cc1F [Example 25] | – | – | 154 to 160
CNC(=O)NCCn1c(-c2ccc(CN3CCOCC3)cc2C)cs/c1=N\c1cccc(F)c1F [Example 26] | – | – | 132 to 135
CNC(=O)NCCn1c(-c2ccc(CN3CCOCC3)c(C)c2)cs/c1=N\c1cccc(F)c1 [Example 27] | – | – | 151 to 152
CNC(=O)NCCn1c(-c2ccc(CN3CCOCC3)cc2OC)cs/c1=N\c1cccc(F)c1 [Example 28] | – | – | 163 to 166
CNC(=O)NCCn1c(-c2ccc(CN3CCOCC3)cc2OC)cs/c1=N\c1ccc(C)c(F)c1 [Example 29] | – | – | 144 to 150
CNC(=O)NCCn1c(-c2ccc(CN3CCOCC3)cc2OC)cs/c1=N\c1cccc(F)c1F [Example 30] | – | – | 161 to 165
CNC(=O)NCCn1c(-c2ccc(CN3CCOCC3)c(OC)c2)cs/c1=N\c1cccc(F)c1 [Example 31] | – | – | 170 to 174
CNC(=O)NCCn1c(-c2ccc(CN3CCOCC3)c(OC)c2)cs/c1=N\c1cccc(F)c1F [Example 32] | – | – | 150 to 153
CNC(=O)NCCn1c(-c2ccc(CN3CCOCC3)c(OC)c2)cs/c1=N\c1ccc(F)cc1F [Example 33] | – | – | 164 to 169
CNC(=O)NCCn1c(-c2ccc(CCN3CCOCC3)cc2)cs/c1=N\c1cccc(F)c1 [Example 45] | – | – | 154 to 160
CNC(=O)NCCn1c(-c2ccc(CCN3CCOCC3)cc2)cs/c1=N\c1cccc(F)c1F [Example 46] | – | – | 155 to 164
CNC(=O)NCCn1c(-c2ccc(CCN3CCOCC3)cc2)cs/c1=N\c1ccc(F)cc1F [Example 47] | – | – | 166 to 172
CCNC(=O)NCCn1c(-c2ccc(C(=O)N3CCOCC3)cc2)cs/c1=N\c1ccc(F)c(C)c1 [Example 53] | – | – | 183 to 186
CCNC(=O)NCCn1c(-c2ccc(C(=O)N3CCOCC3)cc2)cs/c1=N\c1ccc(F)cc1F [Example 54] | – | – | 179 to 180
CCNC(=O)NCCn1c(-c2ccc(C(=O)N3CCOCC3)cc2)cs/c1=N\c1ccc(C)c(F)c1 [Example 55] | – | – | 175 to 178
CCNC(=O)NCCn1c(-c2ccc(C(=O)N3CCOCC3)cc2)cs/c1=N\c1cccc(Cl)c1 [Example 56] | – | – | 182 to 186
CCNC(=O)NCCn1c(-c2ccc(C(=O)N3CCOCC3)cc2)cs/c1=N\c1cccc(F)c1 [Example 57] | – | – | 172 to 177
CCNC(=O)NCCn1c(-c2ccc(C(=O)N3CCOCC3)cc2)cs/c1=N\c1ccc(F)c(C)c1 [Example 58] | – | – | 196 to 203
CCNC(=O)NCCn1c(-c2ccc(C(=O)N3CCOCC3)cc2)cs/c1=N\c1cccc(Cl)c1 [Example 59] | 66 | 7 | 191 to 198
CCNC(=O)c1ccc(-c2cs/c(=N\c3cccc(F)c3)n2CCNC(=O)NC)cc1 [Example 60] | – | – | 170 to 176
CCNC(=O)c1ccc(-c2cs/c(=N\c3ccc(F)cc3)n2CCNC(=O)NC)cc1 [Example 61] | 62 | 6 | 172 to 178
CCNC(=O)c1ccc(-c2cs/c(=N\c3ccc(F)c(F)c3)n2CCNC(=O)NC)cc1 [Example 62] | 65 | 2 | 180 to 188
CCNC(=O)c1ccc(-c2cs/c(=N\c3cccc(Cl)c3)n2CCNC(=O)NC)cc1 [Example 63] | – | – | 185 to 192
CNC(=O)NCCn1c(-c2ccc(C(=O)NC3CC3)cc2)cs/c1=N\c1cccc(F)c1 [Example 64] | – | – | 179 to 185

From US20110034466A1, “NOVEL FIVE-MEMBERED RING COMPOUND” (priority 2008, published 2011)
